Results on 20 compounds are retold here after patent US12226412B2, “Heteroaryl-ketone fused azadecalin glucocorticoid receptor modulators” (Corcept Therapeutics, Inc., priority 2012, dated 2025).

The structures appear in SMILES notation. Like-named read-outs stand apart in the source and are kept apart here. Where only a bound is given, the exact number is not on record here.

For assay [1], the system named is induction of TAT by dexamethasone in HepG2 cells. Briefly: HepG2 tyrosine aminotransferase (TAT) assay. The class given is cell-based, human.
For another assay, the target named is T1, human recombinant GR (Homo sapiens, UniProt P04150).
T1 construct: purchased PanVera P2812
T1 sequence (P04150 1-777): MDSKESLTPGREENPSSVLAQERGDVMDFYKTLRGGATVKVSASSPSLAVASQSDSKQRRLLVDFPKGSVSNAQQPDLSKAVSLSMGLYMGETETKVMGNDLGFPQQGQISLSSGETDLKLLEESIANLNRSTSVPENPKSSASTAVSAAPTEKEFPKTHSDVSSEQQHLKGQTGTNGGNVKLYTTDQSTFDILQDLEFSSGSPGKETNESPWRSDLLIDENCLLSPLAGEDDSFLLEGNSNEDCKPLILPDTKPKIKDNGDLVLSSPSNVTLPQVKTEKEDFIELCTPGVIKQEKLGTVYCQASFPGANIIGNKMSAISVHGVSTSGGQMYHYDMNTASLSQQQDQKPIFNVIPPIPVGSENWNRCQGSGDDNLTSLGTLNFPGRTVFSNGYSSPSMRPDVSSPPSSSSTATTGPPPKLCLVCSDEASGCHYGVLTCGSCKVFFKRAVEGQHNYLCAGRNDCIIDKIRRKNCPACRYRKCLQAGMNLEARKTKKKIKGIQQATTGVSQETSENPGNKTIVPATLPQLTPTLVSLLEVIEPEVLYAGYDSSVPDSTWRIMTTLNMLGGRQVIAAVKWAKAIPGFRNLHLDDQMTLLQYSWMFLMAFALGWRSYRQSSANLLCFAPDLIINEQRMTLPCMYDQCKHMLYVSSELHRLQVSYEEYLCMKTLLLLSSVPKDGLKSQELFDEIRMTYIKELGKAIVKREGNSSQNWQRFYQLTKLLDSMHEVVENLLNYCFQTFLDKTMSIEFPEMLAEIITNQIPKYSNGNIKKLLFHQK
Briefly: Human glucocorticoid receptor (GR) fluorescence polarisation (FP) binding assay. The method in brief: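 Competition fluorescence polarisation: 0.5 nM GS Red labelled glucocorticoid and 1 nM recombinant human GR with 8-point half-log compound series, 1% DMSO, 4 h room temperature, potassium phosphate pH 7.4 buffer with molybdate, EDTA, DTT. Affinity derived from the drop in polarisation, normalised to blank wells.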

[2] abbreviates: HepG2 cells, challenge of 100 nM dexamethasone, Ki from IC50 by Cheng and Prusoff equation.
Where [3] appears, read: human recombinant GR, fluorescence polarisation binding assay, read-out: GR binding.

With `CCCn1ncc(S(=O)(=O)N2CCC3=Cc4c(cnn4-c4ccc(F)cc4)C[C@]3(C(=O)c3cscn3)C2)n1` [Example 11CQ, (R)-(1-(4-fluorophenyl)-6-((2-propyl-2H-1,2,3-triazol-4-yl)sulfonyl)-4,4a,5,6,7,8-hexahydro-1H-pyrazolo[3,4-g]isoquinolin-4a-yl)(thiazol-4-yl)methanone], the Ki in assay [1] (setting [2]) is below 20 nM; at human recombinant GR (setting [3]) it was below 0.5 nM.

Turning to `CCCn1nncc1S(=O)(=O)N1CCC2=Cc3c(cnn3-c3ccc(F)cc3)C[C@]2(C(=O)c2cscn2)C1` [Example 11CR, (R)-(1-(4-fluorophenyl)-6-((1-propyl-1H-1,2,3-triazol-5-yl)sulfonyl)-4,4a,5,6,7,8-hexahydro-1H-pyrazolo[3,4-g]isoquinolin-4a-yl)(thiazol-4-yl)methanone], the Ki in assay [1] (setting [2]) lay in the range of 20 to 100 nM; at human recombinant GR (setting [3]) it was 0.5 to 1 nM.

In the case of `CCCn1cc(S(=O)(=O)N2CCC3=Cc4c(cnn4-c4ccc(F)cc4)C[C@]3(C(=O)c3cscn3)C2)nn1` [Example 11CS, (R)-(1-(4-fluorophenyl)-6-((1-propyl-1H-1,2,3-triazol-4-yl)sulfonyl)-4,4a,5,6,7,8-hexahydro-1H-pyrazolo[3,4-g]isoquinolin-4a-yl)(thiazol-4-yl)methanone], the Ki in assay [1] (setting [2]) is below 20 nM; on human recombinant GR (setting [3]) it was below 0.5 nM.

In the case of `CC(C)n1ncc(S(=O)(=O)N2CCC3=Cc4c(cnn4-c4ccc(F)cc4)C[C@]3(C(=O)c3ccccn3)C2)n1` [Example 11CT, (R)-(1-(4-fluorophenyl)-6-((2-isopropyl-2H-1,2,3-triazol-4-yl)sulfonyl)-4,4a,5,6,7,8-hexahydro-1H-pyrazolo[3,4-g]isoquinolin-4a-yl)(pyridin-2-yl)methanone], the figures for the Ki (in assay [1] (setting [2]); on human recombinant GR (setting [3])) were below 20 nM and below 0.5 nM, respectively.

With `CC(C)n1nncc1S(=O)(=O)N1CCC2=Cc3c(cnn3-c3ccc(F)cc3)C[C@]2(C(=O)c2ccccn2)C1` [Example 11CU, (R)-(1-(4-fluorophenyl)-6-((1-isopropyl-1H-1,2,3-triazol-5-yl)sulfonyl)-4,4a,5,6,7,8-hexahydro-1H-pyrazolo[3,4-g]isoquinolin-4a-yl)(pyridin-2-yl)methanone], the Ki lay in the range of 20 to 100 nM in assay [1] (setting [2]) and 0.5 to 1 nM on human recombinant GR (setting [3]).

For `CC(C)n1cc(S(=O)(=O)N2CCC3=Cc4c(cnn4-c4ccc(F)cc4)C[C@]3(C(=O)c3ccccn3)C2)nn1` [Example 11CV, (R)-(1-(4-fluorophenyl)-6-((1-isopropyl-1H-1,2,3-triazol-4-yl)sulfonyl)-4,4a,5,6,7,8-hexahydro-1H-pyrazolo[3,4-g]isoquinolin-4a-yl)(pyridin-2-yl)methanone], the Ki in assay [1] (setting [2]) is 20 to 100 nM; on human recombinant GR (setting [3]), below 0.5 nM.

For `CCn1nccc1S(=O)(=O)N1CCC2=Cc3c(cnn3-c3ccc(F)cc3)C[C@]2(C(=O)c2cscn2)C1` [Example 11CW, (R)-(6-((1-ethyl-1H-pyrazol-5-yl)sulfonyl)-1-(4-fluorophenyl)-4,4a,5,6,7,8-hexahydro-1H-pyrazolo[3,4-g]isoquinolin-4a-yl)(thiazol-4-yl)methanone], the Ki was 20 to 100 nM in assay [1] (setting [2]) and below 0.5 nM at human recombinant GR (setting [3]).

Turning to `CCCn1cc(S(=O)(=O)N2CCC3=Cc4c(cnn4-c4ccc(F)cc4)C[C@]3(C(=O)c3cc(C(F)(F)F)ccn3)C2)cn1` [Example 11CX, (R)-(1-(4-fluorophenyl)-6-((1-propyl-1H-pyrazol-4-yl)sulfonyl)-4,4a,5,6,7,8-hexahydro-1H-pyrazolo[3,4-g]isoquinolin-4a-yl)(4-(trifluoromethyl)pyridin-2-yl)methanone], the figures for the Ki (in assay [1] (setting [2]); at human recombinant GR (setting [3])) were below 20 nM and below 0.5 nM, respectively.

Turning to `Cn1cc(S(=O)(=O)N2CCC3=Cc4c(cnn4-c4ccc(F)cc4)C[C@]3(C(=O)c3cscn3)C2)cn1` [Example 11CY, (R)-(1-(4-fluorophenyl)-6-((1-methyl-1H-pyrazol-4-yl)sulfonyl)-4,4a,5,6,7,8-hexahydro-1H-pyrazolo[3,4-g]isoquinolin-4a-yl)(thiazol-4-yl)methanone], the Ki lay within 20 to 100 nM in assay [1] (setting [2]) and 0.5 to 1 nM at human recombinant GR (setting [3]).

Take `CCCn1cc(S(=O)(=O)N2CCC3=Cc4c(cnn4-c4ccc(F)cc4)C[C@]3(C(=O)c3cscn3)C2)cn1` [Example 11CZ, (R)-(1-(4-fluorophenyl)-6-((1-propyl-1H-pyrazol-4-yl)sulfonyl)-4,4a,5,6,7,8-hexahydro-1H-pyrazolo[3,4-g]isoquinolin-4a-yl)(thiazol-4-yl)methanone]: the Ki in assay [1] (setting [2]) is below 20 nM; at human recombinant GR (setting [3]), below 0.5 nM.

For `COc1ccc(S(=O)(=O)N2CCC3=Cc4c(cnn4-c4ccc(F)cc4)C[C@]3(C(=O)c3ccccn3)C2)cc1F` [Example 11D, (R)-(6-((3-fluoro-4-methoxyphenyl)sulfonyl)-1-(4-fluorophenyl)-4,4a,5,6,7,8-hexahydro-1H-pyrazolo[3,4-g]isoquinolin-4a-yl)(pyridin-2-yl)methanone], the Ki in assay [1] (setting [2]) was below 20 nM; at human recombinant GR (setting [3]) it was below 0.5 nM.

For the compound `Cc1ccc(S(=O)(=O)N2CCC3=Cc4c(cnn4-c4ccc(F)cc4)C[C@]3(C(=O)c3ccccn3)C2)c(F)c1` [Example 11E, (R)-(6-((2-fluoro-4-methylphenyl)sulfonyl)-1-(4-fluorophenyl)-4,4a,5,6,7,8-hexahydro-1H-pyrazolo[3,4-g]isoquinolin-4a-yl)(pyridin-2-yl)methanone], the results for the Ki (in assay [1] (setting [2]); on human recombinant GR (setting [3])) were 20 to 100 nM and below 0.5 nM, respectively.

Take `Cc1cccc(S(=O)(=O)N2CCC3=Cc4c(cnn4-c4ccc(F)cc4)C[C@]3(C(=O)c3cscn3)C2)c1` [Example 11F, (R)-(1-(4-fluorophenyl)-6-(m-tolylsulfonyl)-4,4a,5,6,7,8-hexahydro-1H-pyrazolo [3,4-g]isoquinolin-4a-yl)(thiazol-4-yl)methanone]: the Ki in assay [1] (setting [2]) was 20 to 100 nM; at human recombinant GR (setting [3]) it was below 0.5 nM.

As to `N#Cc1cccc(S(=O)(=O)N2CCC3=Cc4c(cnn4-c4ccc(F)cc4)C[C@]3(C(=O)c3ccccn3)C2)c1` [Example 11G, (R)-3-((1-(4-fluorophenyl)-4a-picolinoyl-4a,5,7,8-tetrahydro-1H-pyrazolo[3,4-g]isoquinolin-6 (4H)-yl)sulfonyl)benzonitrile], the Ki in assay [1] is below 20 nM; on human recombinant GR, below 0.5 nM.

As for `O=C(c1ccccn1)[C@]12Cc3cnn(-c4ccc(F)cc4)c3C=C1CCN(S(=O)(=O)c1ccc(OC(F)F)cc1)C2` [Example 11H, (R)-(6-((4-(difluoromethoxy)phenyl)sulfonyl)-1-(4-fluorophenyl)-4,4a,5,6,7,8-hexahydro-1H-pyrazolo[3,4-g]isoquinolin-4a-yl)(pyridin-2-yl)methanone], the results for the Ki (in assay [1] (setting [2]); at human recombinant GR (setting [3])) were below 20 nM and below 0.5 nM, respectively.

For the compound `O=C(c1ccccn1)[C@]12Cc3cnn(-c4ccc(F)cc4)c3C=C1CCN(S(=O)(=O)c1cccc(OC(F)(F)F)c1)C2` [Example 11I, (R)-(1-(4-fluorophenyl)-6-((3-(trifluoromethoxy)phenyl)sulfonyl)-4,4a,5,6,7,8-hexahydro-1H-pyrazolo[3,4-g]isoquinolin-4a-yl)(pyridin-2-yl)methanone], the Ki was below 20 nM in assay [1] (setting [2]) and below 0.5 nM at human recombinant GR (setting [3]).

As to `O=C(c1ccccn1)[C@]12Cc3cnn(-c4ccc(F)cc4)c3C=C1CCN(S(=O)(=O)c1cc(F)cc(F)c1)C2` [Example 11J, (R)-(6-((3,5-difluorophenyl)sulfonyl)-1-(4-fluorophenyl)-4,4a,5,6,7,8-hexahydro-1H-pyrazolo[3,4-g]isoquinolin-4a-yl)(pyridin-2-yl)methanone], the figures for the Ki (in assay [1] (setting [2]); on human recombinant GR (setting [3])) were below 20 nM and below 0.5 nM, respectively.

As for `Cc1ccc(S(=O)(=O)N2CCC3=Cc4c(cnn4-c4ccc(F)cc4)C[C@]3(C(=O)c3cscn3)C2)cc1` [Example 11K, (R)-(1-(4-fluorophenyl)-6-tosyl-4,4a,5,6,7,8-hexahydro-1H-pyrazolo[3,4-g]isoquinolin-4a-yl)(thiazol-4-yl)methanone], the Ki was below 20 nM in assay [1] (setting [2]) and below 0.5 nM at human recombinant GR (setting [3]).

Regarding `O=C(c1ccccn1)[C@]12Cc3cnn(-c4ccc(F)cc4)c3C=C1CCN(S(=O)(=O)c1cccc(OC(F)F)c1)C2` [Example 11L, (R)-(6-((3-(difluoromethoxy)phenyl)sulfonyl)-1-(4-fluorophenyl)-4,4a,5,6,7,8-hexahydro-1H-pyrazolo[3,4-g]isoquinolin-4a-yl)(pyridin-2-yl)methanone], the Ki in assay [1] (setting [2]) was below 20 nM; on human recombinant GR (setting [3]) it was below 0.5 nM.

As to `Cc1ccc(S(=O)(=O)N2CCC3=Cc4c(cnn4-c4ccc(F)cc4)C[C@]3(C(=O)c3ccccn3)C2)cc1C` [Example 11M, (R)-(6-((3,4-dimethylphenyl)sulfonyl)-1-(4-fluorophenyl)-4,4a,5,6,7,8-hexahydro-1H-pyrazolo[3,4-g]isoquinolin-4a-yl)(pyridin-2-yl)methanone], the results for the Ki (in assay [1] (setting [2]); on human recombinant GR (setting [3])) were below 20 nM and below 0.5 nM, respectively.
